The source of these data is patent US20210024499A1, “OXIDIZED BIS(3-INDOLYL)METHANES AND USES THEREOF” (Sanford Burnam Prebys Medical Discovery Institute, priority 2018, published 2021).

For test [1], the system named is MDA-MB-231 cells. Kind of test: PARP cleavage assay (Western blotting), MDA-MB-231. Format: cell-based. Conditions: 0.5 μM, 6 hours. The text has this: Compound 1a had no effect under the same conditions (FIG. 1A). […] Compound 1a, 28a, 47a, 48a, 73a, 39a, 70a, 103a, 89a and 88a had no effect under the same conditions (FIG. 3B-C).
For orientation: Immunoblotting shows a protein as a band on a membrane.

Test [2] has as its system HeLa cells. Put plainly: DAPI staining for apoptosis, HeLa. Format: cell-based. How it is done: In HeLa cells, about 60% apoptotic cells were detected when cells were treated with Compound 1 compared to less than 5% when cells were not treated with Compound 1. Apoptotic cells were counted in 200 cells.
We next examined whether Nur77 mitochondrial targeting induced by the combination of Compound 1/B12030 was apoptotic. HeLa cells were treated with either Compound 1 or BI2030 alone or in combination and apoptosis was examined by DAPI staining. About 7.2% or 9.1% of cells were apoptotic when treated with 0.5 μM Compound 1 or 1 μM BI2030, respectively, for 2 hours. […] Apoptotic cells were counted in 200 cells.

The subject of test [3] is MDA-MB-231 cells. Kind of test: Mitochondrial ROS, MDA-MB-231. Format: cell-based. To be noted: dose dependent, 6 hours. As to the method:
(§1) Loss of mitochondrial membrane potential (Avm) represents one of the hallmarks of apoptosis. A JC-1 probe was employed to measure mitochondrial depolarization in cancer cells. MDA-MB-231 breast cancer cells were treated with different concentration of test compounds for 6 hours. JC-1 staining solution (5 μg/ml) was added at 37° C. for 20 min. After washing with PBS twice, mitochondrial membrane potentials were monitored by determining the relative amounts of dual emission from a multiple fluorescence reader. The fluorescence in cells was quantitatively analyzed by flow cytometry. Mitochondrial depolarization is depicted by an increase in the green/red fluorescence intensity ratio. ROS were monitored with the oxiadtion-senstive fluorescent probe 2′7′-dichlorodihydroflurescenin diacetate (DCF-DA).

Another test deals with T1, Nur77 (Homo sapiens, UniProt P22736).
T1 construct: expressed in transfected cells
T1 sequence (P22736 whole entry): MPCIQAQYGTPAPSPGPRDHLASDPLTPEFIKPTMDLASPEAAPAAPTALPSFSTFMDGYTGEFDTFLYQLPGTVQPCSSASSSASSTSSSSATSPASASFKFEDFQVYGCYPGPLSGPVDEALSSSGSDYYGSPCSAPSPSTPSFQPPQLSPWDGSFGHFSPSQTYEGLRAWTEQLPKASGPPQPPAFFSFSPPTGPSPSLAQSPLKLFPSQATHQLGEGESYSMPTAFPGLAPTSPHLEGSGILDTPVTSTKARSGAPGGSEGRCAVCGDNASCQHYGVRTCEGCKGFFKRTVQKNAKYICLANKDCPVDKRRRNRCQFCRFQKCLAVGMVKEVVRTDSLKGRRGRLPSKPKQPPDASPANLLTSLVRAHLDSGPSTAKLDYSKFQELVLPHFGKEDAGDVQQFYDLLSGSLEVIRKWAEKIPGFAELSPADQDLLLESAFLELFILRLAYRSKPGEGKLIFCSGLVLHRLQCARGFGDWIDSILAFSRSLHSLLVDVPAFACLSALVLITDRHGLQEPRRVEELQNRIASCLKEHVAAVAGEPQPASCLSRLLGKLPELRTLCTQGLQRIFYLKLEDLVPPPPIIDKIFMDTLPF
Put plainly: Nur77 expression and mitochondrial targeting with BI2030, HeLa. Format: cell-based. Conditions: HeLa cells. The text has this: To further characterize the effect of Compound 1 on promoting Nur77 mitochondrial targeting, we investigated the effect of Compound 1 in combination with BI2030 on Nur77 mitochondrial targeting and apoptosis induction. […] When Compound 1 and B12030 were used together, most of the BI2030-induced Nur77 protein was found in the heavy membrane fraction, and formed punctate structure in the cytoplasm, as visualized by confocal microscopy.

The test system of a further test is PyMT mammary tumor. Kind of test: MMTV-PyMT mice breast cancer model. Conditions: for growth of PyMT mammary tumor: 18 days. Format: in vivo. As to the method:
Female MMTV-PyMT mice of 12 weeks old were randomly divided into two groups (n=7 each), treated with a daily oral dose of test compound for 18 days. Standard histopathological analysis of tumor tissue was performed (see Example A-19). Test compounds were dissolved in DMSO and diluted with normal saline containing 5.0% (V/V) Tween-80 to a final concentration 0.5 mg/ml. Normal saline with DMSO and 5.0% Tween-80 was employed as the vehicle control.
4 μm thick sections were deparaffinized and rehydrated using xylene and a graded series of ethanol (100, 95, 85, 75, 50%), followed by washing in PBS. Antigen retrieval was performed in 10 mM sodium citrate buffer (pH 6.0), which was microwaved at 100° C. for 20 minutes. After rinsed twice in PBS, sections were blocked at room temperature for 1 hour by using 10% normal goat serum, followed by incubation with anti-ki-67, anti-cleaved-caspase-3, overnight (at least 17 hours) at 4° C. Colors were developed with a DAB horseradish peroxidase color development kit.

The test system of another test is MEFs. Put plainly: Cell viability (MTT), MEFs. To be noted: 6 hours, MTT (FIG. 8). The format is cell-based, mouse. As to the method:
(§2) Cell viability was analyzed by using a colorimetric 3-(4,5-dimethylthiazol-[…]2-yl)-2,5-diphenyletetrazolium Bromide (MTT) assay that determines mitochondrial dehydrogenase activities in the living cells with a colorimetric method. Cells treated with test compounds were incubated with MTT and their effect on the viability of the cells was assayed by the ability of treated cells to reduce the yellow tetrazolium dye MTT to its insoluble formazan, which has a purple color.
(§3) The apoptotic effect of Compound 1 was examined in mouse embryonic fibroblast (MEF) and MEF lacking Nur77 (Nur77^−/−MEF). […] Induction of PARP cleavage (as performed in Example A-7) in MEFs by Compound 1 at 0.5 μM was also attenuated in Nur77^−/−MEFs.

The test system of a further test is Nur77−/−MEFs. Put plainly: Cell viability (MTT), Nur77-/- MEFs. The format is cell-based, mouse. Conditions: 6 hours, MTT (FIG. 8). As to the method:
as §2, §3

In the next test the test system is Bcl-2−/−HeLa cells. Put plainly: PARP cleavage and caspase 3 activation, Bcl-2 knockout HeLa. The format is cell-based. How it is done: Knocking out Nur77 and Bcl-2 from HeLa cells employed the CRISPR/Cas9 system. gRNA targeting sequence of Nur77 (5′-[…]-3′) and Bcl-2 (5′-[…]-3′) was cloned into gRNA cloning vector Px330 (Addgene, 71707) and confirmed by sequencing. To screen for cells lacking Nur77 or Bcl-2, HeLa cells were transfected with control vector and gRNA expression vectors, followed by G418 selection (0.5mg/m1). Single colonies were subjected to Western blotting using anti-Nur77 and anti-Bcl-2 antibody to select knockout cells.
The apoptotic effect of Compound lwas also evaluated in Bcl-2 genome knockout HeLa cells generated by CRISPR/Cas9 technology (Example A-5).

The test system of test [4] is HeLa cells. Kind of test: Mitochondrial membrane potential (JC1), HeLa. The format is cell-based. Conditions: 6 h. As to the method:
as §1
Furthermore, Nur77^−/−HeLa cells were more resistant than the parental HeLa cells to Compound 1 in its induction of the mitochondrial membrane potential loss measured by JC1 staining and in the release of mitochondrial ROS (as performed in Example A-12).
In addition, Bcl-2^−/−HeLa cells were more resistant than the parental HeLa cells to Compound 1 in its induction of the mitochondrial membrane potential loss measured by JC1 staining and in the release of mitochondrial ROS (as performed in Example A-12).

The test system of test [5] is Nur77 interaction with Bcl-2. Kind of test: Cell-based co-immunoprecipitation of Nur77 and Bcl-2. As to the method: Western blotting and co-immunopreciptations (co-IP) were performed. Briefly, cells transfected with or without expression vectors for Nur77 and Bcl-2 were treated with test compounds for 2 hours. The effect of compounds on the interaction of endogenous or transfected Nur77 and Bcl-2 was analyzed by co-immunoprecipitation using appropriate antibodies. Proteins immunoprecipitated from cells by an appropriate anti-Nur77 or anti-Bcl-2 antibody were analyzed by Western blotting.

Consider `FC(F)(F)c1ccc([C+](c2c[nH]c3ccccc23)c2c[nH]c3ccccc23)cc1` [Compound 1, Bis(1H-indol-3-yl)(4-(trifluoromethyl)phenyl)methylium methanesulfonate], for which the PARP cleavage result in the test on MDA-MB-231 cells [1] is on record as “effectively induced PARP cleavage”. Moreover, the “apoptotic cells (DAPI staining), single agent” value with HeLa cells [2] (0.5 μM Compound 1 or 1 μM BI2030, 2 hours) is given as “About 7.2%”. The “apoptotic cells (DAPI staining)” value in the test with HeLa cells [2] (0.5 μM, 6 hours, counted in 200 cells) is reported as “about 60%”. The “apoptotic cells (DAPI staining), co-treated with Compound 1 and BI2030” value in the test on HeLa cells [2] (co-treatment with BI2030, 2 hours) is recorded as “about 35.5%”. In the test with MDA-MB-231 cells [3], the “intracellular mitochondrial reactive oxygen species (mito-ROS)” value is reported as “marked increase”. On Nur77 (Compound 1 0.5 μM, BI2030 1 μM, 2 hours (FIG. 5)), the “induction of Nur77 expression” value was “incapable of inducing Nur77 expression”. Further, on Nur77 (heavy membrane fraction, Compound 1 tested together with BI2030), the “Nur77 mitochondrial accumulation / targeting” value is on record as “able to induce mitochondrial targeting of BI2030-induced Nur77 protein”. Besides, the “expression levels of mTOR markers p-S6 and p-mTOR in tumor” value in the test with PyMT mammary tumor (3 mg/kg) is listed as “markedly reduced”. Further, the “growth of PyMT mammary tumor” value in the test on PyMT mammary tumor (3 mg/kg daily oral) and with PyMT mammary tumor (5 mg/kg daily oral) was “inhibited the growth of PyMT mammary tumor” throughout. Moreover, the “expression levels of proliferation markers PCNA and Ki67 in tumor tissues” value with PyMT mammary tumor (5 mg/kg, Western blotting) is “markedly reduced”. For the same compound, the “cleaved caspase 3 in tumor tissue specimens” value with PyMT mammary tumor (5 mg/kg, immunostaining) is given as “enhanced expression of cleaved caspase 3”. Moreover, the “growth of MEFs” value in the test on MEFs was “dose-dependently inhibited the growth of MEFs”. Also, the “growth inhibitory effect relative to MEFs” value with Nur77−/−MEFs was “significantly diminished”. For the same compound, the “induction of PARP cleavage and caspase 3 activation” value in the test on Bcl-2−/−HeLa cells is given as “strongly suppressed”. For the same compound, the “JC1 green to red ratio (control 100%)” value amounted to 195% with HeLa cells [4] (0.5 μM) and 190% in the test on HeLa cells [4] (1 μM). In addition, the “Nur77 interaction with Bcl-2 (Co-IP)” value in test [5] (Nur77 transfected in HeLa cells) is “interacted with Bcl-2”. In addition, the “endogenous Nur77 immunoprecipitated with endogenous Bcl-2” value in [5] (anti-Bcl-2 antibody) was “specifically immunoprecipitated together with endogenous Bcl-2”. In addition, in test [5] (transfected in HEK293T cells), the “Nur77 or Nur77-LBD interaction with Bcl-2 (Co-IP)” value is “interacted with Bcl-2”.
